Measurements: patent US9567302B2, “Carbamate compounds and of making and using same” (Abide Therapeutics, Inc., priority 2012, dated 2017)

Columns and labels:
Type in all cases: biochemical
FAAH [1] = target: T1, FAAH (Mus musculus, UniProt O08914); experiment: In vitro competitive ABPP, % inhibition at fixed concentration, FAAH; parameters: from tissue
T1 sequence (O08914 1-579): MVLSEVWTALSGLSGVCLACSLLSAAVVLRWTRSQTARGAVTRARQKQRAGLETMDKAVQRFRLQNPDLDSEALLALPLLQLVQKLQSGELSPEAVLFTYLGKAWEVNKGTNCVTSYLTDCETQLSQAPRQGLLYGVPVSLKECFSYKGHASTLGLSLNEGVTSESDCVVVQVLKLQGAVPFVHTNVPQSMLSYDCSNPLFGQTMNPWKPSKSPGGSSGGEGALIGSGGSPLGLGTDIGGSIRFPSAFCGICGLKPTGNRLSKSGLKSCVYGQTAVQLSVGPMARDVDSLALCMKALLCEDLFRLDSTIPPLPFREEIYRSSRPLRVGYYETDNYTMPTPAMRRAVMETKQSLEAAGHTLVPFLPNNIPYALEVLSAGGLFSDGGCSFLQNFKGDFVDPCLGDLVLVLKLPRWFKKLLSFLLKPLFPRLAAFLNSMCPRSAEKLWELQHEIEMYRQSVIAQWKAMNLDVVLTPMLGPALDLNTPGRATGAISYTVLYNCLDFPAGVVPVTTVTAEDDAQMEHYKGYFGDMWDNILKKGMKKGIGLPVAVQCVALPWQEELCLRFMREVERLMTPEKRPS
Description: (§1) In Vitro Competitive Activity-Based Protein Profiling.
(§2) Proteomes (mouse brain membrane fraction or cell lysates) (50 μL, 1.0 mg/ml total protein concentration) were preincubated with varying concentrations of inhibitors at 37° C. After 30 min, FP-Rh (1.0 μL, 50 μM in DMSO) was added and the mixture was incubated for another 30 min at 37° C. Reactions were quenched with SDS loading buffer (50 μL—4×) and run on SDS-PAGE. Following gel imaging, serine hydrolase activity was determined by measuring fluorescent intensity of gel bands corresponding to MAGL, ABHD6 and FAAH using ImageJ 1.43u software.

ABHD6 [2] = target: T2, ABHD6 (Mus musculus, UniProt Q8R2Y0); experiment: In vitro competitive ABPP, % inhibition at fixed concentration, ABHD6; parameters: from tissue
T2 sequence (Q8R2Y0 1-336): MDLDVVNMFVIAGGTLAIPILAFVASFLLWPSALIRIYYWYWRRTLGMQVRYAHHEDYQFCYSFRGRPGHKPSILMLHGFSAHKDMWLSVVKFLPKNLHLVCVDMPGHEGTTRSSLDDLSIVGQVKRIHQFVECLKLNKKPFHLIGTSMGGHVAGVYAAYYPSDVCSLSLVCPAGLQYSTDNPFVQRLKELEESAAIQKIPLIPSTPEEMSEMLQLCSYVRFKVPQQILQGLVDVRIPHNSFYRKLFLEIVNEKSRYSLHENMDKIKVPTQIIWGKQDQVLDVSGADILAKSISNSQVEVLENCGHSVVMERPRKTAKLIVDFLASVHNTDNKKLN
Description: as §1, §2

MAGL [3] = target: T3, MAGL (Mus musculus, UniProt O35678); experiment: In vitro competitive ABPP, % inhibition at fixed concentration, MAGL; parameters: from tissue
T3 sequence (O35678 1-303): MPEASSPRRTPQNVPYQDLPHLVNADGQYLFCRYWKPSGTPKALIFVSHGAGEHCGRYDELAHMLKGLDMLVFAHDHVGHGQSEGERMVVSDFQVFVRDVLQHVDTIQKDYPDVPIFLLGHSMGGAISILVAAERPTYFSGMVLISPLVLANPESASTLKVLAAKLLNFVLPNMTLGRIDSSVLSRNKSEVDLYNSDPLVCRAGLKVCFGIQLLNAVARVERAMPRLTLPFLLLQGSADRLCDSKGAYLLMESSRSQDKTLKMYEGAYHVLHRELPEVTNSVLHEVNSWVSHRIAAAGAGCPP
Description: as §1, §2

MAGL [4] = target: T3, MAGL; experiment: In vitro competitive activity-based protein profiling (FP-Rh), mouse MAGL; parameters: from tissue; host or cells: mouse brain membrane fraction; settings: Table 2, mouse proteome, 30 min preincubation at 37° C.
Description: as §1
(§3) Proteomes (mouse brain membrane fraction or cell lysates) (50 μL, 1.0 mg/ml total protein concentration) were preincubated with varying concentrations of inhibitors at 37° C. After 30 min, FP-Rh (1.0 μL, 50 μM in DMSO) was added and the mixture was incubated for another 30 min at 37° C. Reactions were quenched with SDS loading buffer (50 μL—4×) and run on SDS-PAGE.

FAAH [5] = target: T1, FAAH; experiment: In vitro competitive activity-based protein profiling (FP-Rh), mouse FAAH; parameters: from tissue; host or cells: mouse brain membrane fraction; settings: Table 2, mouse proteome, 30 min preincubation at 37° C.
Description: as §1, §3

ABHD6 [6] = target: T2, ABHD6; experiment: In vitro competitive activity-based protein profiling (FP-Rh), mouse ABHD6; parameters: from tissue; host or cells: mouse brain membrane fraction; settings: Table 2, mouse proteome, 30 min preincubation at 37° C.
Description: as §1, §3

Row | inhibition at 1 µM (FAAH [1]) | inhibition at 1 µM (ABHD6 [2]) | inhibition at 1 µM (MAGL [3]) | SMILES | other results
1 | – | – | – | CC(=O)N1CCN(C(=O)ON2C(=O)CCC2=O)CC1 [Example 51, 2,5-Dioxopyrrolidin-1-yl 4-acetylpiperazine-1-carboxylate] | inhibition at 10 µM (FAAH [1]): < 25%; inhibition at 10 µM (ABHD6 [2]): < 25%; inhibition at 10 µM (MAGL [3]): < 25%
2 | < 25% | 25 to 75% | 25 to 75% | O=C(ON1C(=O)CCC1=O)N1CCN(Cc2ccc(N3CCOCC3)cc2C(F)(F)F)CC1 [Example 76, 2,5-Dioxopyrrolidin-1-yl 4-{[4-(morpholin-4-yl)-2-(trifluoromethyl)phenyl]methyl}piperazine-1-carboxylate] | –
3 | < 25% | 25 to 75% | 25 to 75% | C[C@H]1CN(Cc2ccc(N3CCOCC3)cc2C(F)(F)F)CCN1C(=O)ON1C(=O)CCC1=O [Example 77, 2,5-Dioxopyrrolidin-1-yl (2S)-2-methyl-4-{[4-(morpholin-4-yl)-2-(trifluoromethyl)phenyl]methyl}piperazine-1-carboxylate] | –
4 | < 25% | < 25% | < 25% | C[C@@H]1CN(Cc2ccc(N3CCOCC3)cc2F)CCN1C(=O)ON1C(=O)CCC1=O [Example 79, 2,5-Dioxopyrrolidin-1-yl (2R)-4-{[2-fluoro-4-(morpholin-4-yl)phenyl]methyl}-2-methylpiperazine-1-carboxylate] | –
5 | < 25% | < 25% | < 25% | C[C@@H]1CN(Cc2ccc(N3CCOCC3)cc2C(F)(F)F)CCN1C(=O)ON1C(=O)CCC1=O [Example 80, 2,5-Dioxopyrrolidin-1-yl (2R)-2-methyl-4-{[4-(morpholin-4-yl)-2-(trifluoromethyl)phenyl]methyl}piperazine-1-carboxylate] | –
6 | < 25% | 25 to 75% | < 25% | O=C(ON1C(=O)CCC1=O)N1CCN(Cc2c(Cl)cccc2N2CCOCC2)CC1 [Example 81, 2,5-Dioxopyrrolidin-1-yl 4-{[2-chloro-6-(morpholin-4-yl)phenyl]methyl}piperazine-1-carboxylate] | –
7 | < 25% | < 25% | < 25% | CC1(C)CN(Cc2ccc(N3CCOCC3)cc2C(F)(F)F)CCN1C(=O)ON1C(=O)CCC1=O [Example 86, 2,5-Dioxopyrrolidin-1-yl 2,2-dimethyl-4-{[4-(morpholin-4-yl)-2-(trifluoromethyl)phenyl]methyl}piperazine-1-carboxylate] | –
8 | < 25% | < 25% | < 25% | CC1(C)CN(Cc2ccc(N3CCOCC3)cc2OC(F)(F)F)CCN1C(=O)ON1C(=O)CCC1=O [Example 87, 2,5-Dioxopyrrolidin-1-yl 2,2-dimethyl-4-{[4-(morpholin-4-yl)-2-(trifluoromethoxy)phenyl]methyl}piperazine-1-carboxylate] | –
9 | < 25% | 25 to 75% | 25 to 75% | C[C@H]1CN(Cc2ccc(N3CCOCC3)cc2F)CCN1C(=O)ON1C(=O)CCC1=O [Example 88, 2,5-Dioxopyrrolidin-1-yl (2S)-4-{[2-fluoro-4-(morpholin-4-yl)phenyl]methyl}-2-methylpiperazine-1-carboxylate] | –
10 | < 25% | 25 to 75% | 25 to 75% | C[C@H]1CN(Cc2ccc(N3CCOCC3)cc2Cl)CCN1C(=O)ON1C(=O)CCC1=O [Example 89, 2,5-Dioxopyrrolidin-1-yl (2S)-4-{[2-chloro-4-(morpholin-4-yl)phenyl]methyl}-2-methylpiperazine-1-carboxylate] | –
11 | < 25% | 25 to 75% | 25 to 75% | C[C@H]1CN(Cc2ccc(N3CCOCC3)cc2OC(F)(F)F)CCN1C(=O)ON1C(=O)CCC1=O [Example 90, 2,5-Dioxopyrrolidin-1-yl (2S)-2-methyl-4-{[4-(morpholin-4-yl)-2-(trifluoromethoxy)phenyl]methyl}piperazine-1-carboxylate] | –
12 | < 25% | < 25% | < 25% | C[C@@H]1CN(Cc2ccc(N3CCOCC3)cc2Cl)CCN1C(=O)ON1C(=O)CCC1=O [Example 96, 2,5-Dioxopyrrolidin-1-yl (2R)-4-{[2-chloro-4-(morpholin-4-yl)phenyl]methyl}-2-methylpiperazine-1-carboxylate] | –
13 | < 25% | 25 to 75% | 25 to 75% | O=C(ON1C(=O)CCC1=O)N1CCN(Cc2ccc(N3CCCC3)cc2)CC1 [Example 99, 2,5-Dioxopyrrolidin-1-yl 4-(4-(pyrrolidin-1-yl)benzyl)piperazine-1-carboxylate] | –
14 | < 25% | < 25% | < 25% | O=C(ON1C(=O)CCC1=O)N1CCN(Cc2ccc(N3CCOCC3)cc2)CC1 [Example 100, 2,5-Dioxopyrrolidin-1-yl 4-(4-morpholinobenzyl)piperazine-1-carboxylate] | –
15 | < 25% | 25 to 75% | > 75% | O=C(ON1C(=O)CCC1=O)N1CCN(Cc2ccc(N3CCOCC3)cc2OC(F)(F)F)CC1 [Example 102, 2,5-Dioxopyrrolidin-1-yl 4-{[4-(morpholin-4-yl)-2-(trifluoromethoxy)phenyl]methyl}piperazine-1-carboxylate] | –
16 | < 25% | < 25% | < 25% | C[C@@H]1CN(Cc2ccc(N3CCOCC3)cc2OC(F)(F)F)CCN1C(=O)ON1C(=O)CCC1=O [Example 103, 2,5-Dioxopyrrolidin-1-yl (2R)-2-methyl-4-{[4-(morpholin-4-yl)-2-(trifluoromethoxy)phenyl]methyl}piperazine-1-carboxylate] | –
17 | < 25% | 25 to 75% | 25 to 75% | CS(=O)(=O)N1CCN(c2cc(Cl)ccc2CN2CCN(C(=O)ON3C(=O)CCC3=O)CC2)CC1 [Example 110, 2,5-Dioxopyrrolidin-1-yl 4-{[4-chloro-2-(4-methanesulfonylpiperazin-1-yl)phenyl]methyl}piperazine-1-carboxylate] | –
18 | < 25% | 25 to 75% | 25 to 75% | O=C(ON1C(=O)CCC1=O)N1CCN(Cc2ccc(Cl)cc2N2CCC3(CCNC3=O)CC2)CC1 [Example 111, 2,5-Dioxopyrrolidin-1-yl 4-[(4-chloro-2-{1-oxo-2,8-diazaspiro[4.51]decan-8-yl}phenyl)methyl]piperazine-1-carboxylate] | –
19 | – | – | – | CN(C)C(=O)c1cc(-c2ccccc2)ccc1CN1CCN(C(=O)ON2C(=O)CCC2=O)CC1 [Example 189, 2,5-Dioxopyrrolidin-1-yl 4-{[2-(dimethylcarbamoyl)-4-phenylphenyl]methyl}piperazine-1-carboxylate] | IC50 (MAGL [4]): 100 to 1000 nM; IC50 (FAAH [5]): > 10000 nM; IC50 (ABHD6 [6]): 1000 to 10000 nM
20 | – | – | – | O=C(ON1C(=O)CCC1=O)N1CCN(Cc2ccc(-c3ccccc3)cc2C(=O)N2CCCC2)CC1 [Example 191, 2,5-Dioxopyrrolidin-1-yl 4-{[4-phenyl-2-(pyrrolidine-1-carbonyl)phenyl]methyl}piperazine-1-carboxylate] | IC50 (MAGL [4]): 100 to 1000 nM; IC50 (FAAH [5]): > 10000 nM; IC50 (ABHD6 [6]): 1000 to 10000 nM
